Source: BindingDB's records for doi:10.1016/s0960-894x(02)00699-6 (Sapienza University of Rome, 2002)

What follows are compounds tested against Diamine oxidase [copper-containing] (Sus scrofa) (assay: Inhibitory activity against Swine kidney diamine oxidase (SKDAO)).

| Ki | Compound |
| --- | --- |
| 8 µM | CC(=O)N1N=C(c2ccccc2O)CC1c1cccc(C)c1 (centres undefined) [1-[3-(2-Hydroxy-phenyl)-5-m-tolyl-4,5-dihydro-pyrazol-1-yl]-ethanone] |
| 5.5 µM | CC(=O)N1N=C(c2ccccc2O)CC1c1ccccc1C (centres undefined) [1-[3-(2-Hydroxy-phenyl)-5-o-tolyl-4,5-dihydro-pyrazol-1-yl]-ethanone] |
| 25 µM | CC(=O)N1N=C(c2ccc(O)cc2O)CC1c1cccc(C)c1 (centres undefined) [1-[3-(2,4-Dihydroxy-phenyl)-5-m-tolyl-4,5-dihydro-pyrazol-1-yl]-ethanone] |
| 100 µM | CC(=O)N1N=C(c2ccc(O)cc2O)CC1c1ccccc1C (centres undefined) [1-[3-(2,4-Dihydroxy-phenyl)-5-o-tolyl-4,5-dihydro-pyrazol-1-yl]-ethanone] |
